Measured values as given in US10000525B2, “Non-hormonal steroid modulators of NF-κB for treatment of disease” (ReveraGen Biopharma, Inc, priority 2010, dated 2018).

Experiments:
mdx mice [1] = test: mdx mouse model: histological evaluation (H&E) of gastrocnemius muscle; format: in vivo; settings: for degeneration of skeletal muscle (H&E) / inflammation of skeletal muscle (H&E) / regenerating muscle fibers (H&E): 20 and 40 mg/kg/day per oral in feed, 3 months, in comparison to untreated and prednisolone treated mdx mice
Protocol: (§1) Separate groups (n=12-14) of mdx mice were treated with prednisolone (5 mg/kg/day; per oral in feed), Example 1 (20 and 40 mg/kg/day; per oral in feed) and Example 2 (20 and 40 mg/kg/day; per oral in feed) for 3 months. All mice underwent 30 min biweekly treadmill exercise during the treatment duration to unmask the mild disease phenotype of mdx mouse model.
Hematoxylin and Eosin staining of gastrocnemius muscle of untreated mdx mice show significant degeneration and inflammation. […] Continuous administration of prednisolone appeared to increase degeneration and decrease in regeneration of dystrophic skeletal muscle.

mdx mice [2] = test: In vivo mdx mouse model of dystrophy: body weight and muscle mass; settings: 5 mg/kg/day per oral in feed, at 33.8 weeks age
Protocol: as §1

[3] = tested on: extensor digitorum longus (EDL) muscle; test: mdx mouse model: in vitro force contractions of EDL muscle; format: in vivo; settings: mdx mice, prednisolone 5 mg/kg/day per oral in feed, 3 months
Protocol: as §1
The distal tendon of the extensor digitorum longus (EDL) muscle was tied securely to the lever arm of a servomotor/force transducer (model 305B, Aurora Scientific, Richmond Hill, ON, Canada) and the proximal tendon to a tissue clamp. Muscles were stimulated between two platinum electrodes. […] With the muscle held at Lo using stimulation frequencies of 30, 50, 80, 100, 120 and 150 Hz, the maximum isometric tetanic force (Po) developed during a 300 ms train of stimulation pulses was recorded for the EDL muscle. The muscle length was then measured with calipers and after removal of the muscle from the bath the mass of the muscle was determined. For each muscle, the optimum fiber length (Lf) was calculated by multiplying Lo by a previously determined Lf/Lo ratio of 0.45. […]

[4] = continuous administration, 5 mg/kg/day per oral in feed

Compound | degeneration of skeletal muscle (H&E) (mdx mice [1]) | inflammation of skeletal muscle (H&E) (mdx mice [1]) | regenerating muscle fibers (H&E) (mdx mice [1]) | body weight versus untreated mice (mdx mice [2]) | specific force of EDL muscle, versus untreated group [3] | degeneration of dystrophic skeletal muscle (H&E) (mdx mice [1]; [4]) | regeneration of dystrophic skeletal muscle (H&E) (mdx mice [1]; [4])
C[C@]12CCC(=O)C=C1CCC1C2=CC[C@@]2(C)C1CC[C@]2(O)C(=O)CO (stereo partly drawn) [Example 1, (10S,13S,17R)-17-hydroxy-17-(2-hydroxyacetyl)-10,13-dimethyl-6,7,8,10,12,13,14,15,16,17-decahydro-1H-cyclopenta[a]phenanthren-3(2H)-one] | significant decrease | significant decrease | increase | – | – | – | –
C[C@]12C=CC(=O)C=C1CC[C@@H]1[C@@H]2[C@@H](O)C[C@@]2(C)[C@H]1CC[C@]2(O)C(=O)CO [Prednisolone, reference compound] | – | – | – | significantly lower body weight | no statistically significant (P<0.05) difference | increase | decrease
C[C@]12C=CC(=O)C=C1CCC1C2=CC[C@@]2(C)C1CC[C@]2(O)C(=O)CO (stereo partly drawn) [Example 2, (10S,13S,17R)-17-hydroxy-17-(2-hydroxyacetyl)-10,13-dimethyl-6,7,8,10,12,13,14,15,16,17-decahydro-3H-cyclopenta[a]phenanthren-3-one] | significant decrease | significant decrease | increase | – | – | – | –
